Tested on: synovial lining cells
Conditions: human

Compound | concentration that must not be exceeded in compositions (harmful effects on synovial cells) [µg/mL]
CCN(CC)CCNC(=O)c1ccc(N)cc1 [procainamide] | ≤ 2000
COc1ccc(CCN(C)CCCC(C#N)(c2ccc(OC)c(OC)c2)C(C)C)cc1OC (centres unmarked) [verapamil] | ≤ 2000
